Measured values reported in patent US20030100769A1, “Cyclic amidine compounds” (priority 2000, published 2003).

Key:
[1] = target: T1, α4β2 subtype of nicotinic acetylcholine receptors (Rattus norvegicus, UniProt P09483+P12390); assay: Binding assay at α4β2 subtype of nicotinic acetylcholine receptors ([3H]-cytisine, rat brain membrane)
T1 construct: examined using rat brain membrane obtained from whole homogenized brain; from tissue; host or cells: rat whole brain membranes (Fischer-344 male rats)
Text: (§1) The methods for evaluating the binding capabilities of the compounds at nicotinic acetylcholine receptors are different by subtypes of receptors. The binding capabilities of the compounds at α4β2 nicotinic acetylcholine receptors are examined using rat brain membrane obtained from whole homogenized brain, and determining the inhibiting rate of the compounds against [^3H]-cytisine binding to said brain membrane. Furthermore, the binding capabilities of the compounds at α1β1γδ nicotinic acetylcholine receptors are examined using homogenized rat muscle, and determining the inhibiting rate of the compounds against [^3H]-α-bungarotoxin binding to said muscle homogenate.
Binding Assays at α4β2 Subtype of Nicotinic Acetylcholine Receptors
(1) Preparation of Rat Brain Membrane Containing α4β2 Subtype of Nicotinic Acetylcholine Receptors
Rats were housed in the breeding cage controlled of the room temperature at 23±1° C., and the humidity of 55±5% for 1 to 4 weeks. Rats (3 to 4 rats per a cage) were housed with lights on for 12 hours daily (from 7:00 to 19:00), and allowed free access to food and water.
Preparation of rat brain membrane containing α4β2 subtype of nicotinic acetylcholine receptors was performed as follow. That is, rat brains were isolated just after sacrificed by decapitation, washed with ice-cooled saline solution and then frozen at −80° C. with liquid nitrogen and stored till using. After thawing the frozen brain, the brain was homogenized in 10 volumes of ice-cooled buffer solution (50 mM of Tris-HCl, 120 mM of NaCl, 5 mM of KCl, 1 mM of MgCl2, 2 mM of CaCl2; pH 7.4; 4° C.) using homogenizer (HG30, Hitachi Kohki Ltd.) for 30 seconds, and the homogenate were centrifuged under 1,000×G for 10 minutes at 4° C. The resulting supernatant was separated and the pellet was homogenized again with half volume of aforementioned prior buffer solution and centrifuged under the same conditions. Combined supernatant was further centrifuged under 40,000×G for 20 minutes at 4° C. The pellet was suspended in buffer solution and used for binding assays at receptors.
(2) Experiments of α4β2 Subtype of Nicotinic Acetylcholine Receptors Binding
Suspensions of membrane pellets containing 400-600 μg of protein were added to test tubes containing test compounds and [^3H]-cytisine (2 nM) in a final volume of 200 μl and incubated for 75 minutes in ice-cooled bath. The samples were isolated by vacuum filtration onto Whatman GF/B filters, which were prerinsed with 0.5% polyethylenimine just prior to sample filtration, using Brandel multi manifold cell harvester. The filters were rapidly washed with buffer solution (3×1 ml). The filters were counted in 3 ml of clearsol I (Nacalai Tesque Inc.).
The analyses of the experimental results were conducted by using the Accufit Competition Program (Beckman Ltd.).

[2] = target: α1β1γδ subtype of nicotinic acetylcholine receptors (Rattus norvegicus, UniProt P18916+P25108+P25109+P25110); assay: biochemical; type: binding; conditions: for remaining activity at 100 µM: read-out: control % of [3H]-α-Bgt binding at 100 μM of test compound; for remaining activity at 1000 µM: read-out: control % of [3H]-α-Bgt binding at 1,000 μM of test compound
Text: as §1
Binding Assays at α1β1γδ Subtype of Nicotinic Acetylcholine Receptors
The affinity of the compounds of the present invention to α1β1γδ subtype of nicotinic acetylcholine receptors was measured by the following method, which was modified method described by Garcha H. S., Thomas P., Spivak C.
(1) Preparation of Rat Skeletal Muscles Containing α1β1γδ Subtype of Nicotinic Acetylcholine Receptors
The substantially same animals described in the Biological Experiment 1 were used.
The isolation of α1β1γδ subtype of nicotinic acetylcholine receptors was performed as follow. That is, rat posterior skeletal muscles were isolated just after sacrificed by decapitation, washed with ice-cooled saline solution and then frozen at −80° C. with liquid nitrogen and stored till using. After thawing the frozen muscles, tissue was homogenized ([…]) with buffer solution [2.5 mM of sodium phosphate buffer (pH:7.2), 90 mM of NaCl, 2 mM of KCl, 1 mM of EDTA, 2 mM of benzamidine, 0.1 mM of benzethonium chloride, 0.1 mM of PMSF, 0.01% of sodium azide] in Waring blender (Waring blender 34BL97; WARING PRODUCTS DIVISION DYNAMICS CORPORATION OF AMERICA) for 60 seconds. The homogenate were centrifuged under 20,000×G for 60 minutes at 4° C. The supernatant was separated and the resulting pellet was added to the same buffer (1.5 ml/g wet weight), and homogenized under the same conditions. Triton X100 (2% w/v) was added and the mixture was stirred for 3 hours at 4° C. The centrifugation at 100,000×G for 60 minutes at 4° C. yielded the rat muscle extract as supernatant. This was stored at 4° C. for up to 4 weeks, and used for binding assays at receptors.
(2) Experiments of α1β1γδ Subtype of Nicotinic Acetylcholine Receptors Binding
Receptors binding experiments were performed as follow. That is, the extract of rat muscle containing 600-900 μg of protein was added to test tubes containing test compounds and incubated for 15 minutes at 37° C. Then, to this mixture was added 1 nM of [^3H]-α-bungarotoxin (α-Bgt) and further incubated for 2 hours. The samples were isolated by vacuum filtration onto Whatman GF/B filters, which were prerinsed with 0.5% polyethylenimine just prior to sample filtration, using Brandel multi manifold cell harvester. The filters were rapidly rinsed with washing solution (10 mM of KH2PO4, 150 mM of NaCl, pH 7.2, room temperature) (5×1 ml). The filters were counted in 3 ml of clearsol I (Nacalai Tesque Inc.). The determination of nonspecific binding was incubated in the presence of 1 μM α-Bgt. […] In the receptor binding experiments, said buffer solution was added for adjusting the final concentration of BSA to be 0.05%.
The analyses of the experimental results were conducted by the same way as described in the Biological Experiment 1.

T1 sequence (P09483 31-630): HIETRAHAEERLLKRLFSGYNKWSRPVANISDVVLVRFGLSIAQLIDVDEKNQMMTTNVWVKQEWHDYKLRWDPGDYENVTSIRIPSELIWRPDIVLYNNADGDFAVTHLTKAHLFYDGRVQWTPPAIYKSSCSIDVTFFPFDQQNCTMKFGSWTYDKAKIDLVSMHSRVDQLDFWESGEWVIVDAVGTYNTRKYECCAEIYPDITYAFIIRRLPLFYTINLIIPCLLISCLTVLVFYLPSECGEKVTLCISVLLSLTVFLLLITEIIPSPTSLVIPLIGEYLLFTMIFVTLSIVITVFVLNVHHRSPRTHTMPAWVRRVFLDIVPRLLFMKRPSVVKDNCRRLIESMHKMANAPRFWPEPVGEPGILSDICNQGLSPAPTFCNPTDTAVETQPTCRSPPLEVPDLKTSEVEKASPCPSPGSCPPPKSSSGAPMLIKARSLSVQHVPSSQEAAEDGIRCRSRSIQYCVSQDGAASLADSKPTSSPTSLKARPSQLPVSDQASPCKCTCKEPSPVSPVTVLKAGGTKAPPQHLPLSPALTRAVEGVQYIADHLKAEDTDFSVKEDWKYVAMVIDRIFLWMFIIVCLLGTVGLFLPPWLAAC
T1 sequence (P12390 25-500): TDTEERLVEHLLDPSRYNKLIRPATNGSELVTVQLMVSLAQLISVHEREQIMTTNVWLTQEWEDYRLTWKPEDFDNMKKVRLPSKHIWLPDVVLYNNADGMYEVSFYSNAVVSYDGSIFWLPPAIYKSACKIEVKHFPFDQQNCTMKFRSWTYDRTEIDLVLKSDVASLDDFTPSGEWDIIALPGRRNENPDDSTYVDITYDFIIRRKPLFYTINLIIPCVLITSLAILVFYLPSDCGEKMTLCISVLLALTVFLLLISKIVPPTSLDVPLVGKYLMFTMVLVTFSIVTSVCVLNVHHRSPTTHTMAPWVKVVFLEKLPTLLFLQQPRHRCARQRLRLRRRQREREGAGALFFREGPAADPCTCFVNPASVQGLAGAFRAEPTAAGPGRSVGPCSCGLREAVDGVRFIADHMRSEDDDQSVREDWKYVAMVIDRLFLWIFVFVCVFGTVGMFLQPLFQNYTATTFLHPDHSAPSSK
α1β1γδ subtype of nicotinic acetylcholine receptors, sequence (P25109 24-501): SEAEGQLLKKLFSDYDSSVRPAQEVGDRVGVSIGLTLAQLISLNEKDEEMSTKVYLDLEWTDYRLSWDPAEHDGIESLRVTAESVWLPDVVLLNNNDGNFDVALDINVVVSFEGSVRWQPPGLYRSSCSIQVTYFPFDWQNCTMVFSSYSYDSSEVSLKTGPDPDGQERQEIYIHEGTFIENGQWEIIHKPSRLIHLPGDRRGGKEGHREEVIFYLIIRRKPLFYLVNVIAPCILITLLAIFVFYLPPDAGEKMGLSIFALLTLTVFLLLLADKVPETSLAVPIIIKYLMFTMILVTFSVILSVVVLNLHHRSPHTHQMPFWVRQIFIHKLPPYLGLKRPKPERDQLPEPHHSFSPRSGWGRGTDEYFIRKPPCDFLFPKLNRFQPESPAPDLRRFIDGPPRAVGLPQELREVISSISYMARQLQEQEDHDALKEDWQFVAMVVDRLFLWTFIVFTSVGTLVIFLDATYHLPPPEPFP
α1β1γδ subtype of nicotinic acetylcholine receptors, sequence (P25110 22-517): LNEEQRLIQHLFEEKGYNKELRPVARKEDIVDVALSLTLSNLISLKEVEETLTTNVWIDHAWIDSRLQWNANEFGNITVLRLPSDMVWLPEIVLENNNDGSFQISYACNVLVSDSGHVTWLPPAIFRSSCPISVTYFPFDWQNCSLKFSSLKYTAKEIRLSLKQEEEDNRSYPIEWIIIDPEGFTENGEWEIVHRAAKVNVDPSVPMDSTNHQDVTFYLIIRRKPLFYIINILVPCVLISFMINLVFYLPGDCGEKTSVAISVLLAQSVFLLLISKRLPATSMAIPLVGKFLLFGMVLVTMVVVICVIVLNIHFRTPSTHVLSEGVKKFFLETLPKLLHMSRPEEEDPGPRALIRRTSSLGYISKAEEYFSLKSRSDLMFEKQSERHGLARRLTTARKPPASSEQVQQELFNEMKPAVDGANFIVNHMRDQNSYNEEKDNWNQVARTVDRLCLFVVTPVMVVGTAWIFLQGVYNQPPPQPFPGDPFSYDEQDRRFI
α1β1γδ subtype of nicotinic acetylcholine receptors, sequence (P25108 21-457): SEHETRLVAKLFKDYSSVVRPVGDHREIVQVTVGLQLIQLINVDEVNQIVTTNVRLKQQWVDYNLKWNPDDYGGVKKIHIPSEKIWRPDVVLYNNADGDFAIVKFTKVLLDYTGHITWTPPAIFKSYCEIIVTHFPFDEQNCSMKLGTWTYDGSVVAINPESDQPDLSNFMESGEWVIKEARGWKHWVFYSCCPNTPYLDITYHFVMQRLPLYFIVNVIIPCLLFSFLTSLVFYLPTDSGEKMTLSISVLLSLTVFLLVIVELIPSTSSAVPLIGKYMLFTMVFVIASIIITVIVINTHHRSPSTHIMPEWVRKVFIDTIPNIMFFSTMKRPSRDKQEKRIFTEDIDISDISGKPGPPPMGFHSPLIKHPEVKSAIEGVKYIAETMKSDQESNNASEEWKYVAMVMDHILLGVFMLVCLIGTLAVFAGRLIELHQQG

With `Clc1ccc(C2=NCCCN2)cn1` [Compound 2, 2-(6-chloro-3-pyridyl)-1,4,5,6-tetrahydropyrimidine] as the compound, how does the Ki [1] read?
Its Ki is 13 nM.

And the remaining activity at 100 µM [2]?
Its remaining activity at 100 µM is 34%.

And the remaining activity at 1000 µM [2]?
The remaining activity at 1000 µM was 6%.

Which results are given for `CN1CCN=C1c1ccc(Cl)nc1` [Compound 3, 2-(6-chloro-3-pyridyl)-1-methyl-2-imidazoline]?
Ki [1]: 45 nM; remaining activity at 100 µM [2]: 34%; remaining activity at 1000 µM [2]: 5%

`Clc1ncc(C2=NCCCN2)s1` [Compound 22, 2-(2-chloro-5-thiazolyl)-1,4,5,6-tetrahydropyrimidine] was tested. Which Ki [1] did it give?
Its Ki is 429 nM.

What about the remaining activity at 100 µM [2] of the same compound?
Its remaining activity at 100 µM is 23%.

And the remaining activity at 1000 µM [2]?
The remaining activity at 1000 µM was -4%.
